Starred links: 1 amine or outer side, 2 acyl side, 3 side chain; linkers in the order of their positions; H or OH if unused. Positions of bridges follow the written chain, without caps; N, C: chain ends. Non-standard residues stand in square brackets, D forms with d. Residues, ends and D or L forms follow the SMILES beside them. Groups on a side chain read outwards from the residue. *: point of attachment. X51 = C[N+](C)(C)CCCc1cn(-c2ccc(C[C@H](N[*:1])C(=O)[*:2])cc2)nn1; Me3N+(CH2)2O(CH2)2O(CH2)2CO = C[N+](C)(C)CCOCCOCCC(=O)*; Trp(7-Me) = Cc1cccc2c(C[C@H](N)C(=O)O)c[nH]c12; Hexanoyl(6-NMe3+) = C[N+](C)(C)CCCCCC(=O)*; X89 = COCCOCCOCC[N+](C)(CCOCCOCCOC)CC*; γGlu = O=C(O)[C@H](CCC(=O)[*:2])N[*:1]; 2Nal = N[C@@H](Cc1ccc2ccccc2c1)C(=O)O; AEF = NCCOc1ccc(C[C@H](N)C(=O)O)cc1; dNMeY = CN[C@H](Cc1ccc(O)cc1)C(=O)O; 3Pal = N[C@@H](Cc1cccnc1)C(=O)O; Myristoyl = CCCCCCCCCCCCCC(=O)*; Lys(Me) = CNCCCC[C@H](N)C(=O)O; X7 = COCCOCCOCCOCCOCCOCCC(=O)*; Pen = CC(C)(S)[C@H](N)C(=O)O; αMeK = C[C@](N)(CCCCN)C(=O)O; X88 = COCC[N+](C)(C)CCCC*; Thp = NC1(C(=O)O)CCOCC1; Dap = NC[C@H](N)C(=O)O; X3 = C[N+](C)(C)CCCCC*; AEEA = NCCOCCOCC(=O)O; X61 = COCCOCCCNCC*; Sar = CNCC(=O)O

The data set in a line: Exposed Polar Surface Area (EPSA). The data set is classed as physicochemical. Conditions: SFC on Chirex 3014 column; sample 1 mM DMSO stock; read-out: EPSA. The procedure, abridged: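 Polarity descriptor in Å² derived from retention time using 8 calibration standards re-run every 20 compounds. Duplicate injections of 1 mM DMSO stock; linear 5–60% modifier gradient (20 mM ammonium formate in MeOH) with CO2 at 4 mL/min, 35 °C, on a Chirex 3014 column.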
For `CC(=O)NCCCC[C@@H]1NC(=O)[C@H](Cc2c[nH]c3c(C)cccc23)NC(=O)[C@H]([C@@H](C)O)NC(=O)[C@H](CC(N)=O)NC(=O)[C@@H](NC(C)=O)C(C)(C)SSC(C)(C)[C@@H](C(=O)N[C@@H](Cc2ccc(OCCN)cc2)C(=O)N[C@@H](Cc2ccc3ccccc3c2)C(=O)NC2(C(=O)N[C@@H](CCC(=O)O)C(=O)N[C@@H](CC(N)=O)C(=O)N[C@@H](Cc3cccnc3)C(=O)N(C)CC(=O)N3CCOCC3)CCOCC2)NC1=O` [SEQ ID 112, MeCO-Pen(3)—N-T-7MeW—K(Ac)-Pen(3)-AEF-2Nal-THIP-E-N-3Pya-Sar-COMor], the EPSA was 169 A^2.

In the case of `CC(=O)NCCCC[C@@H]1NC(=O)[C@H](Cc2c[nH]c3c(C)cccc23)NC(=O)[C@H]([C@@H](C)O)NC(=O)[C@H](CC(N)=O)NC(=O)[C@@H](NC(C)=O)C(C)(C)SSC(C)(C)[C@@H](C(=O)N[C@@H](Cc2ccc(OCC[N+](C)(C)C)cc2)C(=O)N[C@@H](Cc2ccc3ccccc3c2)C(=O)NC2(C(=O)N[C@@H](CCCCNC(C)=O)C(=O)N[C@@H](CC(N)=O)C(=O)N[C@@H](Cc3cccnc3)C(=O)N(C)CC(N)=O)CCOCC2)NC1=O` [compound 561, MeCO-Pen(3)-N-T-7MeW-K(Ac)-pen(3)-AEF(NMe3)-2Nal-THP-K(Ac)-N-3Pya-Sar-CONH2], the EPSA came to 163 A^2.

Regarding `CC(=O)N(C)CCCC[C@@H]1NC(=O)[C@H](Cc2c[nH]c3c(C)cccc23)NC(=O)[C@H]([C@@H](C)O)NC(=O)[C@H](CC(=O)N(C)C)NC(=O)[C@@H](NC(=O)CCOCCOCC[N+](C)(C)C)C(C)(C)SSC(C)(C)[C@@H](C(=O)N[C@@H](Cc2ccc(OCCN)cc2)C(=O)N[C@@H](Cc2ccc3ccccc3c2)C(=O)NC2(C(=O)N[C@@H](CCC(=O)N(C)C)C(=O)N[C@@H](CC(N)=O)C(=O)N[C@@H](Cc3cccnc3)C(=O)N(C)CC(N)=O)CCOCC2)NC1=O` [compound 150, cPEG3aCO-Pen(3)-N(N(Me)2)-T-7MeW-K(NMeAc)-Pen(3)-AEF-2Nal-THP-Q(N(Me)2)-N-3Pya-Sar-CONH2] ({Me3N+(CH2)2O(CH2)2O(CH2)2CO}-[Pen]D(NMe2)T[Trp(7-Me)][Lys(Me)](Ac)[Pen][AEF][2Nal][Thp]E(NMe2)N[3Pal][Sar]-NH2; disulfide 1-6), the EPSA was 159 A^2.

For `COCCOCCOCC[N+](C)(CCOCCOCCOC)CCOc1ccc(C[C@H](NC(=O)[C@H]2NC(=O)[C@H](CCCCN(C)C(C)=O)NC(=O)[C@H](Cc3c[nH]c4c(C)cccc34)NC(=O)[C@H]([C@@H](C)O)NC(=O)[C@H](CC(=O)N(C)C)NC(=O)[C@@H](NC(=O)CCOCCOCC[N+](C)(C)C)C(C)(C)SSC2(C)C)C(=O)N[C@@H](Cc2ccc3ccccc3c2)C(=O)NC2(C(=O)N[C@@H](CCCCN(C)C(C)=O)C(=O)N[C@@H](CC(N)=O)C(=O)N[C@@H](Cc3cccnc3)C(=O)N(C)CC(=O)N(C)C)CCOCC2)cc1` [compound 241, cPEG3aCO-Pen(3)-N(N(Me)2)-T-7MeW-K(NMeAc)-Pen(3)-AEF(NMeBismPEG3)-2Nal-THP-K(NMeAc)-N-3Pya-Sar-CON(Me)2] ({Me3N+(CH2)2O(CH2)2O(CH2)2CO}-[Pen]D(NMe2)T[Trp(7-Me)][Lys(Me)](Ac)[Pen]Y(X89)[2Nal][Thp][Lys(Me)](Ac)N[3Pal][Sar]-NMe2; disulfide 1-6), the EPSA stood at 135 A^2.

On to `CC(=O)N(C)CCCC[C@@H]1NC(=O)[C@H](Cc2c[nH]c3c(C)cccc23)NC(=O)[C@H]([C@@H](C)O)NC(=O)[C@H](CC(=O)N(C)C)NC(=O)[C@@H](NC(=O)CCOCCOCC[N+](C)(C)C)C(C)(C)SSC(C)(C)[C@@H](C(=O)N[C@@H](Cc2ccc(-n3cc(CCC[N+](C)(C)C)nn3)cc2)C(=O)N[C@@H](Cc2ccc3ccccc3c2)C(=O)NC2(C(=O)N[C@@H](CCCCN(C)C(C)=O)C(=O)N[C@@H](CC(N)=O)C(=O)N[C@@H](Cc3cccnc3)C(=O)N(C)CC(=O)N(C)C)CCOCC2)NC1=O` [compound 334, cPEG3aCO-Pen(3)-N(N(Me)2)-T-7MeW-K(NMeAc)-Pen(3)-F(4TzlTMA3)-2Nal-THP-K(NMeAc)-N-3Pya-Sar-CON(Me)2] ({Me3N+(CH2)2O(CH2)2O(CH2)2CO}-[Pen]D(NMe2)T[Trp(7-Me)][Lys(Me)](Ac)[Pen][X51][2Nal][Thp][Lys(Me)](Ac)N[3Pal][Sar]-NMe2; disulfide 1-6 (inferred)), for which the EPSA worked out at 155 A^2.

For the molecule `CCCCCCCCCCCCCC(=O)N[C@@H](CCC(=O)NCCOCCOCC(=O)NCCOCCOCC(=O)NCCCC[C@@H]1NC(=O)[C@H](Cc2c[nH]c3c(C)cccc23)NC(=O)[C@H]([C@@H](C)O)NC(=O)[C@H](CCCCNC(=O)COCCOCCNC(=O)COCCOCCNC(=O)CC[C@H](NC(=O)CCCCCCCCCCCCC)C(=O)O)NC(=O)[C@@H](NC(=O)CCOCCOCC[N+](C)(C)C)C(C)(C)SSC(C)(C)[C@@H](C(=O)N[C@@H](Cc2ccc(OCCCCC[N+](C)(C)C)cc2)C(=O)N[C@@H](Cc2ccc3ccccc3c2)C(=O)NC2(C(=O)N[C@@H](CCCCN(C)C(C)=O)C(=O)N[C@@H](CC(N)=O)C(=O)N[C@@H](Cc3cccnc3)C(=O)N(C)CC(=O)N(C)C)CCOCC2)NC1=O)C(=O)O` [compound 396, cPEG3aCO-Pen(3)-K(PEG2PEG2gEC14)-T-7MeW-K(PEG2PEG2gEC14)-Pen(3)-TMAPF-2Nal-THP-K(NMeAc)-N-3Pya-Sar-CON(Me)2] ({Me3N+(CH2)2O(CH2)2O(CH2)2CO}-[Pen]K([AEEA-AEEA-γGlu-Myristoyl])T[Trp(7-Me)]K([AEEA-AEEA-γGlu-Myristoyl])[Pen]Y(X3)[2Nal][Thp][Lys(Me)](Ac)N[3Pal][Sar]-NMe2; disulfide 1-6), the EPSA worked out at 172 A^2.

`CC(=O)NCCCC[C@@H]1NC(=O)[C@H](Cc2c[nH]c3c(C)cccc23)NC(=O)[C@H]([C@@H](C)O)NC(=O)[C@H](CC(N)=O)NC(=O)[C@@H](NC(=O)CCOCCOCC[N+](C)(C)C)C(C)(C)SSC(C)(C)[C@@H](C(=O)N[C@@H](Cc2ccc(OCCCCC[N+](C)(C)C)cc2)C(=O)N[C@@H](Cc2ccc3ccccc3c2)C(=O)NC2(C(=O)N[C@@H](CCC(=O)O)C(=O)N[C@@H](CC(N)=O)C(=O)N[C@@H](Cc3cncc(C)c3)C(=O)N(C)CC(N)=O)CCOCC2)NC1=O` [compound 505, cPEG3aCO-Pen(3)-N-T-7MeW-K(Ac)-Pen(3)-TMAPF-2Nal-THP-E-N-5MePyridinAla-Sar-CONH2]: the EPSA stood at 179 A^2.

Consider `COCCOCCCNCCOc1ccc(C[C@H](NC(=O)[C@H]2NC(=O)[C@H](CCCCNC(C)=O)NC(=O)[C@H](Cc3c[nH]c4c(C)cccc34)NC(=O)[C@H]([C@@H](C)O)NC(=O)[C@H](CC(N)=O)NC(=O)[C@@H](NC(=O)CCCCC[N+](C)(C)C)C(C)(C)SSC2(C)C)C(=O)N[C@@H](Cc2ccc3ccccc3c2)C(=O)NC2(C(=O)N[C@@H](CNC(C)=O)C(=O)N[C@@H](CC(N)=O)C(=O)N[C@@H](Cc3cccnc3)C(=O)N(C)CC(N)=O)CCOCC2)cc1` [compound 204] ({Hexanoyl(6-NMe3+)}-[Pen]NT[Trp(7-Me)]K(Ac)[Pen]Y(X61)[2Nal][Thp][Dap](Ac)N[3Pal][Sar]-NH2; disulfide 1-6), for which the EPSA was 153 A^2.

As to `COCC[N+](C)(C)CCCCOc1ccc(C[C@H](NC(=O)[C@H]2NC(=O)[C@H](CCCCN(C)C(C)=O)NC(=O)[C@H](Cc3c[nH]c4c(C)cccc34)NC(=O)[C@H]([C@@H](C)O)NC(=O)[C@H](CC(=O)N(C)C)NC(=O)[C@@H](NC(=O)CCOCCOCC[N+](C)(C)C)C(C)(C)SSC2(C)C)C(=O)N[C@@H](Cc2ccc3ccccc3c2)C(=O)NC2(C(=O)N[C@@H](CCCCN(C)C(C)=O)C(=O)N[C@@H](CC(N)=O)C(=O)N[C@@H](Cc3cccnc3)C(=O)N(C)CC(=O)N(C)C)CCOCC2)cc1` [compound 227, cPEG3aCO-Pen(3)-N(N(Me)2)-T-7MeW-K(NMeAc)-Pen(3)-mPEG2TMA4F-2Nal-THP-K(NMeAc)-N-3Pya-Sar-CON(Me)2] ({Me3N+(CH2)2O(CH2)2O(CH2)2CO}-[Pen]D(NMe2)T[Trp(7-Me)][Lys(Me)](Ac)[Pen]Y(X88)[2Nal][Thp][Lys(Me)](Ac)N[3Pal][Sar]-NMe2; disulfide 1-6), the EPSA came to 139 A^2.

Regarding `CC(=O)NCCCC[C@@H]1NC(=O)[C@H](Cc2c[nH]c3c(C)cccc23)NC(=O)[C@H]([C@@H](C)O)NC(=O)[C@H](CC(N)=O)NC(=O)[C@@H](NC(C)=O)C(C)(C)SSC(C)(C)[C@@H](C(=O)N[C@@H](Cc2ccc(OCCN)cc2)C(=O)N[C@@H](Cc2ccc3ccccc3c2)C(=O)NC2(C(=O)N[C@@H](CCCCN(C)C(C)=O)C(=O)N[C@@H](CC(N)=O)C(=O)N[C@@H](Cc3cccnc3)C(=O)N(C)CC(N)=O)CCOCC2)NC1=O` [compound 59] (Ac-[Pen]NT[Trp(7-Me)]K(Ac)[Pen][AEF][2Nal][Thp][Lys(Me)](Ac)N[3Pal][Sar]-NH2; disulfide 1-6 (inferred)), the EPSA is 166 A^2.

In the case of `CC(=O)NCCCC[C@@H]1NC(=O)[C@H](Cc2c[nH]c3c(C)cccc23)NC(=O)[C@H]([C@@H](C)O)NC(=O)[C@H](CC(N)=O)NC(=O)[C@@H](NC(C)=O)C(C)(C)SSC(C)(C)[C@@H](C(=O)N[C@@H](Cc2ccc(OCCN)cc2)C(=O)N[C@@H](Cc2ccc3ccccc3c2)C(=O)N[C@@](C)(CCCCN)C(=O)N[C@@H](CCCCNC(C)=O)C(=O)N[C@@H](CC(N)=O)C(=O)N[C@@H](Cc2ccccc2)C(=O)N(C)[C@H](Cc2ccc(O)cc2)C(N)=O)NC1=O` [compound 7, MeCO-Pen(3)-N-T-7MeW-K(Ac)-Pen(3)-AEF-2Nal-aMeK-K(Ac)-N-F-NMeDTyr-CONH2] (Ac-[Pen]NT[Trp(7-Me)]K(Ac)[Pen][AEF][2Nal][αMeK]K(Ac)NF[dNMeY]-NH2; disulfide 1-6), the EPSA was found to be 170 A^2.

As for `COCCOCCOCCOCCOCCOCCC(=O)N(C)CCCC[C@H](NC(=O)C1(NC(=O)[C@H](Cc2ccc3ccccc3c2)NC(=O)[C@H](Cc2ccc(OCCN)cc2)NC(=O)[C@H]2NC(=O)[C@H](CCCCNC(C)=O)NC(=O)[C@H](Cc3c[nH]c4c(C)cccc34)NC(=O)[C@H]([C@@H](C)O)NC(=O)[C@H](CC(N)=O)NC(=O)[C@@H](NC(C)=O)C(C)(C)SSC2(C)C)CCOCC1)C(=O)N[C@@H](CC(N)=O)C(=O)N[C@@H](Cc1cccnc1)C(=O)N(C)CC(N)=O` [compound 92] (Ac-[Pen]NT[Trp(7-Me)]K(Ac)[Pen][AEF][2Nal][Thp][Lys(Me)](X7)N[3Pal][Sar]-NH2; disulfide 1-6), the EPSA came out at 151 A^2.
